Structures are written as SMILES.

Sequence of G-protein coupled receptor 52 (Q9Y2T5 whole entry): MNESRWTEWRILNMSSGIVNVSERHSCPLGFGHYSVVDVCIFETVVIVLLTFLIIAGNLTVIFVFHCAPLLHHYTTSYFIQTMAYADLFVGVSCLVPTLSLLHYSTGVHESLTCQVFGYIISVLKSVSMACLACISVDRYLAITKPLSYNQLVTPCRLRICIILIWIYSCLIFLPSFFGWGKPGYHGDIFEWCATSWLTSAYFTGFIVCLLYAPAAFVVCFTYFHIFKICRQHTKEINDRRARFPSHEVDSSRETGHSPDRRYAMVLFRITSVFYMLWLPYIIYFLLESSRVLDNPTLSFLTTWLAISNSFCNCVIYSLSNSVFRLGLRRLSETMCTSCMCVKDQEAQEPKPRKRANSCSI

The first assay addresses G-protein coupled receptor 52 (Homo sapiens, UniProt Q9Y2T5). Nature of the assay: Antagonist activity at GPR52 (unknown origin) expressed in HEK293 cells assessed as inhibition of WO459-induced cAMP accumulation preincubated for 15 mins followed by WO459 addition and measured after 30 mins by LANCE Ultra cAMP kit based microplate reader analysis. As to conditions: hek293; call rule not given here. Type of assay: functional, cell-based.
Turning to `O=C(/C=C/CCc1ccccc1)c1ccc(F)cc1`, the IC50 entry is given as “Not Active”.
Turning to `O=C(/C=C/CCc1ccccc1)N1CCCCC1`, the IC50 result was “Not Active”.
As for `CC/C=C/C(=O)c1ccccc1`, the IC50 entry was “Not Active”.

Still in this assay, the particulars now being: read-out: IC50.
With `O=C(/C=C/CCc1ccccc1)c1ccoc1`, the half-maximal inhibitory concentration (IC50) is 1520 nM.
The same measure, in the same setting: for `O=C(/C=C/CCc1ccccc1)c1ccc2ccccc2c1` the value was 3540 nM; for `O=C(/C=C/CCc1ccccc1)c1cccc2ccccc12`, 3290 nM; for `O=C(/C=C/CCc1ccccc1)c1ccccc1-c1ccccc1`, 1230 nM.
On the same count and under the same terms, for `O=C(/C=C/CCc1ccccc1)CCc1ccccc1` the value was 5450 nM; for `O=C(/C=C/CCc1ccc(Br)cc1)c1ccccc1`, 1810 nM; for `Cc1ccccc1C(=O)/C=C/CCc1ccccc1`, 2630 nM.
With `Cc1cccc(C(=O)/C=C/CCc2ccccc2)c1`, the IC50 came out at 2570 nM.
For the compound `O=C(/C=C/CCc1ccccc1)c1ccccn1`, the IC50 came out at 1820 nM.
Still for that read-out and setting: for `COc1ccccc1C(=O)/C=C/CCc1ccccc1` the value was 1720 nM.
`COc1cccc(C(=O)/C=C/CCc2ccccc2)c1`: the IC50 stood at 1490 nM.
Still for that read-out and setting: for `Cc1cccc(C)c1C(=O)/C=C/CCc1ccccc1` the value was 2820 nM; for `O=C(/C=C/CCc1ccccc1)c1cccc(F)c1`, 2370 nM; for `Cc1ccc(C(=O)/C=C/CCc2ccccc2)cc1`, 3020 nM.
Turning to `O=C(/C=C/CCc1ccccc1)c1ccc(-c2ccccc2)cc1`, the IC50 came out at 7640 nM.
With `O=C(/C=C/CCc1ccccc1)c1ccccc1F`, the IC50 came to 1760 nM.
Same read-out and setting: as for `O=C(/C=C/CCc1ccccc1Br)c1ccccc1`, the figure is 1640 nM; as for `O=C(/C=C/CCc1ccccc1)c1cccc(-c2ccccc2)c1`, 8130 nM.
For the compound `COc1ccc(C(=O)/C=C/CCc2ccccc2)cc1`, the IC50 is 3870 nM.

As a reminder, the IC50 is the concentration at which inhibition is half-maximal.
